# Source: US9670161B2, “5-fluoro-N-(pyridin-2-yl)pyridin-2-amine derivatives containing a sulfone group” (BAYER PHARMA AKTIENGESELLSCHAFT, priority 2012, dated 2017)
# Key:
# CDK9/CycT1 = CDK9/CycT1 (Homo sapiens (Human), UniProt P50750); assay: CDK9/CycT1 kinase assay (TR-FRET, 10 μM ATP); assay type: biochemical; conditions: Method 1a
# Text: 1a. CDK9/CycT1 Kinase Assay:
# CDK9/CycT1-inhibitory activity of compounds of the present invention was quantified employing the CDK9/CycT1 TR-FRET assay as described in the following paragraphs:
# Recombinant full-length His-tagged human CDK9 and CycT1, expressed in insect cells and purified by Ni-NTA affinity chromatography, were purchased from Invitrogen (Cat. No PV4131). As substrate for the kinase reaction biotinylated peptide biotin-Ttds-YISPLKSPYKISEG (C-terminus in amid form) was used which can be purchased e.g. form the company JERINI Peptide Technologies (Berlin, Germany).
# (§1) For the assay 50 nl of a 100 fold concentrated solution of the test compound in DMSO was pipetted into a black low volume 384 well microtiter plate (Greiner Bio-One, Frickenhausen, Germany), 2 μl of a solution of CDK9/CycT1 in aqueous assay buffer [50 mM Tris/HCl pH 8.0, 10 mM MgCl2, 1.0 mM dithiothreitol, 0.1 mM sodium ortho-vanadate, 0.01% (v/v) Nonidet-P40 (Sigma)] were added and the mixture was incubated for 15 min at 22° C. to allow pre-binding of the test compounds to the enzyme before the start of the kinase reaction. Then the kinase reaction was started by the addition of 3 μl of a solution of adenosine-tri-phosphate (ATP, 16.7 μM=>final conc. in the 5 μl assay volume is 10 μM) and substrate (1.67 μM=>final conc. in the 5 μl assay volume is 1 μM) in assay buffer and the resulting mixture was incubated for a reaction time of 25 min at 22° C. The concentration of CDK9/CycT1 was adjusted depending of the activity of the enzyme lot and was chosen appropriate to have the assay in the linear range, typical concentrations were in the range of 1 μg/mL. The reaction was stopped by the addition of 5 μl of a solution of TR-FRET detection reagents (0.2 μM streptavidine-XL665 [Cisbio Bioassays, Codolet, France] and 1 nM anti-RB(pSer807/pSer811)-antibody from BD Pharmingen [#558389] and 1.2 nM LANCE EU-W1024 labeled anti-mouse IgG antibody [Perkin-Elmer, product no. AD0077]) in an aqueous EDTA-solution (100 mM EDTA, 0.2% (w/v) bovine serum albumin in 100 mM HEPES/NaOH pH 7.0).
# The resulting mixture was incubated 1 h at 22° C. to allow the formation of complex between the phosphorylated biotinylated peptide and the detection reagents. Subsequently the amount of phosphorylated substrate was evaluated by measurement of the resonance energy transfer from the Eu-chelate to the streptavidine-XL. Therefore, the fluorescence emissions at 620 nm and 665 nm after excitation at 350 nm was measured in a HTRF reader, e.g. a Rubystar (BMG Labtechnologies, Offenburg, Germany) or a Viewlux (Perkin-Elmer). The ratio of the emissions at 665 nm and at […] was taken as the measure for the amount of phosphorylated substrate. The data were normalised (enzyme reaction without inhibitor=0% inhibition, all other assay components but no enzyme=100% inhibition).
# CDK2/CycE = CDK2/CycE (Homo sapiens (Human), UniProt P24941); assay: CDK2/CycE high ATP kinase assay (TR-FRET, 2 mM ATP); assay type: biochemical; conditions: Method 2b
# Procedure: 2b. CDK2/CycE High ATP Kinase Assay
# CDK2/CycE-inhibitory activity of compounds of the present invention at 2 mM adenosine-tri-phosphate (ATP) was quantified employing the CDK2/CycE TR-FRET (TR-FRET=Time Resolved Fluorescence Energy Transfer) assay as described in the following paragraphs.
# Recombinant fusion proteins of GST and human CDK2 and of GST and human CycE, expressed in insect cells (Sf9) and purified by Glutathion-Sepharose affinity chromatography, were purchase from ProQinase GmbH (Freiburg, Germany). As substrate for the kinase reaction biotinylated peptide biotin-Ttds-YISPLKSPYKISEG (C-terminus in amid form) was used which can be purchased e.g. form the company JERINI peptide technologies (Berlin, Germany).
# as §1, with “CDK2/CycE” for “CDK9/CycT1”, “ATP (3.33 mM=>final conc. in the 5 μl assay volume is 2 mM) and substrate (1.25” for “of adenosine-tri-phosphate (ATP, 16.7”, “0.75” for “10 μM) and substrate (1.67 μM=>final conc. in the 5 μl assay volume is 1”, “15 ng/ml.” for “1 μg/mL.”, “AD0077, as an alternative a Terbium-cryptate-labeled anti-mouse IgG antibody from Cisbio Bioassays can be used])” for “AD0077])”
# The resulting mixture was incubated 1 h at 22° C. to allow the formation of complex between the phosphorylated biotinylated peptide and the detection reagents. Subsequently the amount of phosphorylated substrate was evaluated by measurement of the resonance energy transfer from the Eu-chelate to the streptavidine-XL. Therefore, the fluorescence emissions at 620 nm and 665 nm after excitation at 350 nm were measured in a TR-FRET reader, e.g. a Rubystar (BMG Labtechnologies, Offenburg, Germany) or a Viewlux (Perkin-Elmer). The ratio of the emissions at 665 nm and at […] was taken as the measure for the amount of phosphorylated substrate. The data were normalised (enzyme reaction without inhibitor=0% inhibition, all other assay components but no enzyme=100% inhibition).
# Sequence of CDK9/CycT1 (P50750 whole entry): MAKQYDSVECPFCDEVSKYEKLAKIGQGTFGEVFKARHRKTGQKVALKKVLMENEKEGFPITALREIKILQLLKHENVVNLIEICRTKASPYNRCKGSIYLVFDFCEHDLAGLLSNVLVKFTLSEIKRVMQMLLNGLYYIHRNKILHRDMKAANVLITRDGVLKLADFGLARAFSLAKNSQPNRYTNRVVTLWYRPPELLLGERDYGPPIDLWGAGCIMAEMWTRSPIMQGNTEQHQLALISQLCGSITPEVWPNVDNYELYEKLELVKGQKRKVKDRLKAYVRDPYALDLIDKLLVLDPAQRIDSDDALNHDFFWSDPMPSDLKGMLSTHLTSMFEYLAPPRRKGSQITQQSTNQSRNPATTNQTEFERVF
# Sequence of CDK9/CycT1 (O60563 whole entry partner): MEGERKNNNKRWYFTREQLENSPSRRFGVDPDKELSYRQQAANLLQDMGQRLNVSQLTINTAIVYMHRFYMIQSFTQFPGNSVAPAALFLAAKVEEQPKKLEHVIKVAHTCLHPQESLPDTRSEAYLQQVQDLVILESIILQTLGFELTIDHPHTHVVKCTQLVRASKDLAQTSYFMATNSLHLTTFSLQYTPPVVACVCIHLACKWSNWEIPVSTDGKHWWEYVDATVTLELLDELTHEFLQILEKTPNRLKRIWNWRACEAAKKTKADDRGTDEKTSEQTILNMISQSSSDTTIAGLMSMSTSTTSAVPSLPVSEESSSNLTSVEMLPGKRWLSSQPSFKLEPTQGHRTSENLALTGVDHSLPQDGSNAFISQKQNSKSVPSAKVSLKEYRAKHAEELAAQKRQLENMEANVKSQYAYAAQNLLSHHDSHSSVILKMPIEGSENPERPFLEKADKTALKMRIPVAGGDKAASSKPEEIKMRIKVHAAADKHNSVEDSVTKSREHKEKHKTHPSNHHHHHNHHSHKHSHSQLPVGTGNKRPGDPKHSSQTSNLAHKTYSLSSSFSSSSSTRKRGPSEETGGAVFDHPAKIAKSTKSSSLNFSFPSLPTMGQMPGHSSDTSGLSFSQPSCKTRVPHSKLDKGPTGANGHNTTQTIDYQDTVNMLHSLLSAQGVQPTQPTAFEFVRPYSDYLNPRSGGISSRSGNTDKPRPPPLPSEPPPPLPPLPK
Compound,IC50 (CDK9/CycT1) [nM],IC50 (CDK2/CycE) [nM]
"COc1cc(F)ccc1-c1cc(Nc2cc(CS(C)(=O)=O)cc(C(F)F)n2)ncc1F [Example 5, N-{6-(Difluoromethyl)-4-[(methylsulfonyl)methyl]pyridin-2-yl}-5-fluoro-4-(4-fluoro-2-methoxyphenyl)pyridin-2-amine]",2,103
"COc1cc(F)ccc1-c1cc(Nc2cc(CS(C)(=O)=O)ccn2)ncc1F [Example 1, 5-Fluoro-4-(4-fluoro-2-methoxyphenyl)-N-{4-[(methylsulfonyl)methyl]pyridin-2-yl}pyridin-2-amine]",2,2180
"COc1cc(F)ccc1-c1cc(Nc2cc(CS(C)(=O)=O)cc(C)n2)ncc1F [Example 2, 5-Fluoro-4-(4-fluoro-2-methoxyphenyl)-N-{6-methyl-4-[(methylsulfonyl)methyl]pyridin-2-yl}pyridin-2-amine]",3,625
"COc1cc(F)ccc1-c1cc(Nc2cc(CS(C)(=O)=O)cc(F)n2)ncc1F [Example 3, 5-Fluoro-4-(4-fluoro-2-methoxyphenyl)-N-{6-fluoro-4-[(methylsulfonyl)methyl]pyridin-2-yl}pyridin-2-amine]",3,787
"COc1cc(F)ccc1-c1cc(Nc2cc(CS(C)(=O)=O)cc(C(F)(F)F)n2)ncc1F [Example 4, 5-Fluoro-4-(4-fluoro-2-methoxyphenyl)-N-{4-[(methylsulfonyl)methyl]-6-(trifluoromethyl)pyridin-2-yl}pyridin-2-amine]",4,169
